Entries after “also recorded” stand apart in the source; their conditions may differ.

Holding throughout (format): cell-based, human
Data set [1] has as its system primed HPSCs. As to the kind of experiment: ERK inhibitor assay, primed PSCs. As to conditions: 10 nM ERK inhibitor in media, imaged each day for 4 days. Here is the method: (§1) One day after passaging, 10 nM ERK inhibitor PD0325901 (PZ0162, Sigma-Aldrich, St. Louis, Mo.) was added to naïve or primed PSCs. Cells were imaged each day for 4 days to follow morphology changes.

Data set [2] relates to naïve HPSCs. As to the kind of experiment: ERK inhibitor assay, naïve PSCs. The settings on record: naïve HPSCs in RSet media, additional 10 nM ERK inhibitor, imaged each day for 4 days; listed as PD325901. How it is done:
as §1

Data set [3] has as its system primed HPSCs. Briefly: Feeder-free transition of primed HPSCs to the naïve state on a culture substrate. As to conditions: RSet media, substrate-coated plate. Here is the method:
Primed induced pluripotent stem cell (PCBC16iPS) (Ye et al. (2013) PLoS ONE 8 (1):e53764) to be used for naïve cell derivation were cultured for at least two passages in mTeSR1 medium (STEMCELL Technologies, Vancouver, Canada) in either normoxic (20% O2, 5% CO2) or hypoxic conditions (5% O2, 5% CO2). Primed iPSCs were treated with Gentle Cell Dissociation Reagent (STEMCELL Technologies, Vancouver, Canada) for 5 minutes at room temperature and removed from the plate with a 5 milliliter (mL) pipette in 1 mL TeSR1 medium. Aggregates of 250 primed iPSCs were plated in 1 mL mTeSR1 (STEMCELL Technologies, Vancouver, Canada) per well of a 12-well tissue culture treated plate (Corning, Inc., Corning, N.Y.) coated with 5 micrograms per milliliter (μg/mL) full-length vitronectin (PeproTech, Rocky Hill, N.J.) (Parr et al. (2016) Methods in Molecular Biology 1357:221-9). The plate had been previously coated with vitronectin at 37° C. for 2 hours per manufacturer's protocol. The plated cells were incubated overnight at 37° C., to allow adherence to the vitronectin coated plate. The cells may be incubated in either normoxic or hypoxic conditions, and typically were incubated under the same conditions used to maintain the primed HPSC culture. […] Cells were monitored for compaction and defined colony edges. […]

The test system of data set [4] is naïve HPSCs. As to the kind of experiment: Karyotype of transitioned naïve HPSCs (high-resolution G banding). As to conditions: after 10 passages in RSet media. The source says: Naïve HPSCs were examined by high-resolution G banding after 10 passages in RSet medium.

On to `O=C(NOC[C@H](O)CO)c1ccc(F)c(F)c1Nc1ccc(I)cc1F` [PD0325901], for which the “differentiation / maintenance of pluripotency (morphology changes)” value with primed HPSCs [1] is recorded as “induces differentiation; also recorded: displayed immediate differentiation”. The “differentiation / maintenance of undifferentiated state (morphology changes)” value with naïve HPSCs [2] is “maintain their undifferentiated state”.

B1: full-length recombinant vitronectin: xeno-free recombinant full-length vitronectin (PeproTech), coated on plate at 5 μg/mL as culture substrate (protein, UniProt P04004 1-478, looked up)
chain: MAPLRPLLILALLAWVALADQESCKGRCTEGFNVDKKCQCDELCSYYQSCCTDYTAECKPQVTRGDVFTMPEDEYTVYDDGEEKNNATVHEQVGGPSLTSDLQAQSKGNPEQTPVLKPEEEAPAPEVGASKPEGIDSRPETLHPGRPQPPAEEELCSGKPFDAFTDLKNGSLFAFRGQYCYELDEKAVRPGYPKLIRDVWGIEGPIDAAFTRINCQGKTYLFKGSQYWRFEDGVLDPDYPRNISDGFDGIPDNVDAALALPAHSYSGRERVYFFKGKQYWEYQFQHQPSQEECEGSSLSAVFEHFAMMQRDSWEDIFELLFWGRTSAGTRQPQFISRDWHGVPGQVDAAMAGRIYISGMAPRPSLAKKQRFRHRNRKGYRSQRGHSRGRNQNSRRPSRATWLSLFSSEESNLGANNYDDYRMDWLVPATCEPIQSVFFFSGDKYYRVNLRTRRVDTVDPPYPRSIAQYWLGCPAPGHL
modifications: full-length
notes: xeno-free recombinant full-length vitronectin (PeproTech), coated on plate at 5 μg/mL as culture substrate
On to B1, for which the “support of transition from primed to naïve pluripotent state” value in the data set with primed HPSCs [3] is listed as “supports the successful transition”. The “karyotype of naïve HPSCs derived on the substrate” value with naïve HPSCs [4] was “normal karyotype”.

The values are drawn from US20200165574A1, “METHODS OF PREPARING NAÏVE HUMAN PLURIPOTENT STEM CELLS” (REGENTS OF THE UNIVERSITY OF MINNESOTA, priority 2017, published 2020).
